The values that follow come from PMC12670426 (Journal of Medicinal Chemistry, 2025).

In experiment [1] the target is T1, human galectin-1 (Gal-1, full length) (Homo sapiens, UniProt P09382).
T1 construct: Gal-1 is a prototype galectin consisting of a single CRD and was used in full length; 6xHis tag with TEV protease site (N, cleaved yes); made in house; host or cells: BL21 Escherichia coli (pET-15b)
The experiment is described as follows: Competitive fluorescence polarization assay, Gal-1. It is filed as binding. On the procedure:
(§1) Our investigation of the structure–activity relationship of N-aryl-N-lactosylamides started with an initial screening of substituted acetanilides (Table ). These compounds can be readily synthesized from a wide range of commercially available substituted anilines. Affinity was evaluated using a fluorescence polarization assay, which enables reliable determination of dissociation constants (K d) between small molecules and galectins. All inhibitors in this series were tested against the two most common human galectins: Gal-1 and Gal-3. Gal-1 is a prototype galectin consisting of a single CRD and was used in full length. In the case of Gal-3, which consists of the C-terminal CRD and N-terminal unfolded region, only the C-terminal domain was used (Gal-3C). Affinities were compared to methyl β-lactoside (β-LacOMe) as a baseline.
(§2) Fluorescence polarization experiments for determining inhibitor affinities were performed using the same instrumentation and settings as described for the direct binding experiments. […] The galectin–probe mixture was subsequently added using a Certus Flex liquid handler (Fritz Gyger AG, Switzerland) to reach a final volume of 5 μL. Anisotropy was measured after 30–60 min incubation at 25 °C. Inhibitor dissociation constants (K d) were calculated using Wang’s exact cubic model for competitive binding implemented in the BindCurve package. Protein and probe concentrations used in these competitive experiments are provided in the Supporting Information.
(§3) Competitive binding was modeled by Wang’s exact cubic model,3 which is written as […]
(§4) r = rmin + (rmax − rmin) 3 (6) […]
(§5) where r, rmin and rmax have the same meaning as in Equation 1. The coefficients a, b, and c are […]
(§6) a = Kd∗ + Kd + [L∗]T + [L]T − [R]T (7) b = Kd∗([L]T − [R]T) + Kd([L∗]T − [R]T) + Kd∗ Kd (8) […]
(§7) where Kd∗ is the dissociation constant of the probe, Kd is the dissociation constant of the […]
(§8) the unlabeled ligand, and [R]T is the total concentration of the receptor. The angle θ is defined […]
(§9) In the competitive binding experiments, the values of [L∗]T, [R]T and Kd∗ are known and [L]T is titrated. The values of minimal and maximal anisotropy rmin and rmax were fixed during fitting at the values of the minimal and maximal asymptotes obtained from the direct binding experiments. The value of Kd was calculated as the only unfixed parameter in the model.
(§10) Experimental constants used for the competitive fluorescence polarization experiments are […]
(§11) Table S2. Experimental constants used for competitive fluorescence polarization experiments. […]
For orientation: In fluorescence polarisation assays a small probe gives low polarisation when free and higher when bound to something large.

In experiment [2] the target is T2, human galectin-3C (Gal-3C, C-terminal CRD of galectin-3) (Homo sapiens, UniProt P17931).
T2 construct: only the C-terminal domain was used (Gal-3C); 6xHis tag with TEV protease site (N, cleaved yes); made in house; host or cells: BL21 Escherichia coli (pET-15b)
The experiment is described as follows: Competitive fluorescence polarization assay, Gal-3C. It is filed as binding. On the procedure: as §1, §2, §3, §4, §5, §6, §7, §8, §9, §10, §11

Where [3] appears, read: CSV supplement, unrounded mean, read-out: Gal1_IC50_mean_uM.
Setting [4] is: CSV supplement, unrounded mean, read-out: Gal1_Kd_mean_uM.
Where [5] appears, read: competitive fluorescence polarization, mean ± SD, read-out: Kd Gal-1.
Setting [6] is: four-parameter logistic model, mean ± SD, read-out: IC50 Gal-1.
Setting [7] is: CSV supplement, unrounded mean, read-out: Gal3C_IC50_mean_uM.
[8] abbreviates: CSV supplement, unrounded mean, read-out: Gal3C_Kd_mean_uM.
Where [9] appears, read: competitive fluorescence polarization, mean ± SD, read-out: Kd Gal-3C.
[10] abbreviates: four-parameter logistic model, mean ± SD, read-out: IC50 Gal-3C.

Read-outs that look alike come from different tables or passages of the source.

T1 sequence (P09382 2-135): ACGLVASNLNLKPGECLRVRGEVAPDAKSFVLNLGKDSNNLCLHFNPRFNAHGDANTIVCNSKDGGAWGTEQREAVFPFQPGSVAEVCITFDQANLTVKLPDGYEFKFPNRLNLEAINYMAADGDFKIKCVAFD
T2 sequence (P17931 118-248 limits assumed): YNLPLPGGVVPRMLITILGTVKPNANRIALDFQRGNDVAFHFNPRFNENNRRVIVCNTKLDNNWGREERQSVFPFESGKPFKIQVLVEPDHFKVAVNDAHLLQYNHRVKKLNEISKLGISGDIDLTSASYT

Take `CC(=O)N(c1cc(F)c(F)c(F)c1)[C@@H]1O[C@H](CO)[C@@H](O[C@@H]2O[C@H](CO)[C@H](O)[C@H](O)[C@H]2O)[C@H](O)[C@H]1O` [Compound 3i, N-[4-O-(β-D-Galactopyranosyl)-β-D-glucopyranosyl]-N-(3,4,5-trifluorophenyl)acetamide]: the IC50 was determined as 565 µM in experiment [1] (setting [3]), 570 ± 10 µM in experiment [1] (setting [6]), 328 µM in experiment [2] (setting [7]) and 330 ± 5 µM in experiment [2] (setting [10]). Besides, the Kd in experiment [1] (setting [4]) stood at 314 µM; in experiment [1] (setting [5]), 310 ± 90 µM; in experiment [2] (setting [8]), 111 µM; in experiment [2] (setting [9]), 110 ± 8 µM.

Regarding `CC(=O)N(c1ccc(Cl)cc1)[C@@H]1O[C@H](CO)[C@@H](O[C@@H]2O[C@H](CO)[C@H](O)[C@H](O)[C@H]2O)[C@H](O)[C@H]1O` [Compound 3j, N-[4-O-(β-D-Galactopyranosyl)-β-D-glucopyranosyl]-N-(4-chlorophenyl)acetamide], the IC50 came to 654 µM in experiment [1] (setting [3]), 650 ± 30 µM in experiment [1] (setting [6]), 363 µM in experiment [2] (setting [7]) and 360 ± 10 µM in experiment [2] (setting [10]). Further, the Kd in experiment [1] (setting [4]) stood at 363 µM; in experiment [1] (setting [5]), 360 ± 30 µM; in experiment [2] (setting [8]), 113 µM; in experiment [2] (setting [9]) it was 110 ± 10 µM.

`CC(=O)N(c1ccc(Cl)c(Cl)c1)[C@@H]1O[C@H](CO)[C@@H](O[C@@H]2O[C@H](CO)[C@H](O)[C@H](O)[C@H]2O)[C@H](O)[C@H]1O` [Compound 3k, N-[4-O-(β-D-Galactopyranosyl)-β-D-glucopyranosyl]-N-(3,4-dichlorophenyl)acetamide]: the IC50 in experiment [1] (setting [3]) was found to be 659 µM; in experiment [1] (setting [6]) it was 660 ± 8 µM; in experiment [2] (setting [7]), 346 µM; in experiment [2] (setting [10]), 350 ± 40 µM. Further, the Kd amounted to 376 µM in experiment [1] (setting [4]), 380 ± 60 µM in experiment [1] (setting [5]), 112 µM in experiment [2] (setting [8]) and 110 ± 20 µM in experiment [2] (setting [9]).

With `CC(=O)N(c1ccc(I)cc1)[C@@H]1O[C@H](CO)[C@@H](O[C@@H]2O[C@H](CO)[C@H](O)[C@H](O)[C@H]2O)[C@H](O)[C@H]1O` [Compound 3l, N-[4-O-(β-D-Galactopyranosyl)-β-D-glucopyranosyl]-N-(4-iodophenyl)acetamide], the IC50 in experiment [1] (setting [3]) was 718 µM; in experiment [1] (setting [6]), 720 ± 40 µM; in experiment [2] (setting [7]), 355 µM; in experiment [2] (setting [10]) it was 360 ± 20 µM. Moreover, the Kd in experiment [1] (setting [4]) was determined as 396 µM; in experiment [1] (setting [5]) it was 400 ± 20 µM; in experiment [2] (setting [8]), 113 µM; in experiment [2] (setting [9]) it was 110 ± 20 µM.

Consider `COc1ccc(N(C(C)=O)[C@@H]2O[C@H](CO)[C@@H](O[C@@H]3O[C@H](CO)[C@H](O)[C@H](O)[C@H]3O)[C@H](O)[C@H]2O)cc1` [Compound 3m, N-[4-O-(β-D-Galactopyranosyl)-β-D-glucopyranosyl]-N-(4-methoxyphenyl)acetamide], for which the IC50 turned out to be 973 µM in experiment [1] (setting [3]), 970 ± 50 µM in experiment [1] (setting [6]), 346 µM in experiment [2] (setting [7]) and 350 ± 30 µM in experiment [2] (setting [10]). The Kd in experiment [1] (setting [4]) was found to be 661 µM; in experiment [1] (setting [5]) it was 660 ± 70 µM; in experiment [2] (setting [8]) it was 137 µM; in experiment [2] (setting [9]), 140 ± 50 µM.

For `COc1ccc(N(C(C)=O)[C@@H]2O[C@H](CO)[C@@H](O[C@@H]3O[C@H](CO)[C@H](O)[C@H](O)[C@H]3O)[C@H](O)[C@H]2O)cc1OC` [Compound 3n, N-[4-O-(β-D-Galactopyranosyl)-β-D-glucopyranosyl]-N-(3,4-dimethoxyphenyl)acetamide], the IC50 in experiment [1] (setting [3]) was 678 µM; in experiment [1] (setting [6]), 680 ± 10 µM; in experiment [2] (setting [7]), 284 µM; in experiment [2] (setting [10]), 280 ± 10 µM. Besides, the Kd in experiment [1] (setting [4]) came to 364 µM; in experiment [1] (setting [5]), 360 ± 40 µM; in experiment [2] (setting [8]), 88.9 µM; in experiment [2] (setting [9]), 89 ± 20 µM.

Take `COc1cc(N(C(C)=O)[C@@H]2O[C@H](CO)[C@@H](O[C@@H]3O[C@H](CO)[C@H](O)[C@H](O)[C@H]3O)[C@H](O)[C@H]2O)cc(OC)c1OC` [Compound 3o, N-[4-O-(β-D-Galactopyranosyl)-β-D-glucopyranosyl]-N-(3,4,5-trimethoxyphenyl)acetamide]: the IC50 in experiment [1] (setting [3]) came to 461 µM; in experiment [1] (setting [6]) it was 460 ± 80 µM; in experiment [2] (setting [7]), 238 µM; in experiment [2] (setting [10]), 240 ± 40 µM. For the same molecule, the Kd in experiment [1] (setting [4]) was 243 µM; in experiment [1] (setting [5]), 240 ± 40 µM; in experiment [2] (setting [8]), 76.2 µM; in experiment [2] (setting [9]), 76 ± 20 µM. Also, in experiment [1] (compared to 3a), the “improvement in affinity toward Gal-1 compared to 3a” value came to 2 fold.

For `CC(=O)N(c1ccc2c(c1)OCO2)[C@@H]1O[C@H](CO)[C@@H](O[C@@H]2O[C@H](CO)[C@H](O)[C@H](O)[C@H]2O)[C@H](O)[C@H]1O` [Compound 3p, N-[4-O-(β-D-Galactopyranosyl)-β-D-glucopyranosyl]-N-(1,3-benzodioxol-5-yl)acetamide], the IC50 in experiment [1] (setting [3]) came to 981 µM; in experiment [1] (setting [6]) it was 980 ± 10 µM; in experiment [2] (setting [7]) it was 346 µM; in experiment [2] (setting [10]) it was 350 ± 10 µM. The Kd was determined as 545 µM in experiment [1] (setting [4]), 540 ± 30 µM in experiment [1] (setting [5]), 115 µM in experiment [2] (setting [8]) and 110 ± 20 µM in experiment [2] (setting [9]).

As to `CCOC(=O)c1ccccc1N(C(C)=O)[C@@H]1O[C@H](CO)[C@@H](O[C@@H]2O[C@H](CO)[C@H](O)[C@H](O)[C@H]2O)[C@H](O)[C@H]1O` [Compound 3q, N-[4-O-(β-D-Galactopyranosyl)-β-D-glucopyranosyl]-N-[2-(ethylcarboxy)phenyl]acetamide], the IC50 in experiment [1] (setting [3]) was determined as 773 µM; in experiment [1] (setting [6]) it was 770 ± 70 µM; in experiment [2] (setting [7]), 242 µM; in experiment [2] (setting [10]), 240 ± 5 µM. The Kd in experiment [1] (setting [4]) worked out at 411 µM; in experiment [1] (setting [5]), 410 ± 20 µM; in experiment [2] (setting [8]), 80.2 µM; in experiment [2] (setting [9]), 80 ± 9 µM.

Take `CC(=O)N(c1cccc(C(=O)O)c1)[C@@H]1O[C@H](CO)[C@@H](O[C@@H]2O[C@H](CO)[C@H](O)[C@H](O)[C@H]2O)[C@H](O)[C@H]1O` [Compound 3r, N-[4-O-(β-D-Galactopyranosyl)-β-D-glucopyranosyl]-N-(3-carboxyphenyl)acetamide]: the IC50 was 1400 µM in experiment [1] (setting [3]), 1400 ± 100 µM in experiment [1] (setting [6]), 127 µM in experiment [2] (setting [7]) and 130 ± 20 µM in experiment [2] (setting [10]). Moreover, the Kd in experiment [1] (setting [4]) came out at 858 µM; in experiment [1] (setting [5]), 860 ± 30 µM; in experiment [2] (setting [8]) it was 40.9 µM; in experiment [2] (setting [9]), 41 ± 10 µM. The “improvement in affinity toward Gal-3C compared to 3a” value in experiment [2] (compared to unsubstituted phenyl derivative 3a) amounted to 2 fold. For the same molecule, in experiment [2] (ratio Kd (Gal-1)/Kd (Gal-3C)), the “selectivity for Gal-3C over Gal-1” value turned out to be 20 fold.

As to `CC(C)C(=O)N(c1cccc(C(=O)O)c1)[C@@H]1O[C@H](CO)[C@@H](O[C@@H]2O[C@H](CO)[C@H](O)[C@H](O)[C@H]2O)[C@H](O)[C@H]1O` [Compound 3s, N-[4-O-(β-D-Galactopyranosyl)-β-D-glucopyranosyl]-N-(3-carboxyphenyl)-2-methylpropanamide], the IC50 in experiment [1] (setting [3]) was 1800 µM; in experiment [1] (setting [6]), 1800 ± 200 µM; in experiment [2] (setting [7]) it was 113 µM; in experiment [2] (setting [10]) it was 110 ± 0.2 µM. The Kd in experiment [1] (setting [4]) came to 1000 µM; in experiment [1] (setting [5]), 1000 ± 300 µM; in experiment [2] (setting [8]), 39.5 µM; in experiment [2] (setting [9]), 39 ± 4 µM.

As to `O=C(O)c1cccc(N(C(=O)c2ccccc2)[C@@H]2O[C@H](CO)[C@@H](O[C@@H]3O[C@H](CO)[C@H](O)[C@H](O)[C@H]3O)[C@H](O)[C@H]2O)c1` [Compound 3t, N-[4-O-(β-D-Galactopyranosyl)-β-D-glucopyranosyl]-N-(3-carboxyphenyl)benzamide], the IC50 is 1310 µM in experiment [1] (setting [3]), 1300 ± 30 µM in experiment [1] (setting [6]), 120 µM in experiment [2] (setting [7]) and 120 ± 9 µM in experiment [2] (setting [10]). In addition, the Kd in experiment [1] (setting [4]) turned out to be 841 µM; in experiment [1] (setting [5]), 840 ± 80 µM; in experiment [2] (setting [8]), 51.3 µM; in experiment [2] (setting [9]), 51 ± 10 µM.
